Data set [1] can be described thus: proteolytic resistance in pig kidney homogenate. It is filed as in vitro ADME. The settings on record: pig, pig kidney homogenate; for metabolised at 3 h, 0.2 μmol angiotensin/mg kidney homogenate: read-out: Degradation after 3 h (%). The protocol:
(§1) Angiotensin (wildtype or cyclised analogs, chemically produced [Cyc 4-7] Ang(1-7) or biologically produced [Cyc 4-7] Ang(1-8)) was added to homogenates of pig liver (0.2 μmol angiotensin/mg liver homogenate), pig kidney (0.2 μmol angiotensin/mg kidney homogenate), pig pancreas (0.8 μmol angiotensin/mg pancreas homogenate) or plasma (1 μmol angiotensin/ml) and incubated at 37° C., pH 7.4 or pH 5, for different time periods up to 30 hours. The enzymatic reaction was stopped by 100° C. for 5 min. The remaining amount of intact angiotensin was determined by RP-HPLC with C18-column, mobile phase gradient and 214 nm detection.

Data set [2] in a line: proteolytic resistance in plasma. The settings on record: pH 7.4, 37° C. It is filed as in vitro ADME. How it is done: as §1
Data set [3] in a line: in vivo stability during continuous intravenous infusion in the rat (Maldi TOF of plasma). Set-up: species or system Sprague Dawley rat. The settings on record: i.v. infusion 1 mL/hour of 100 μM of each peptide together, sample taken at 120 min. How it is done: Rats (Sprague Dawley) were infused during 2 hours at a speed of 1 mL/hour with a solution containing simultaneously two compounds: both 100 μM natural Ang(1-7) as well as 100 μM methyllanthionine-containing angiotensin(1-7) with the thioether bridge between positions 4 and 7. Methyllanthionine-containing angiotensin(1-7) was prepared using L. lactis expressing lantibiotic enzymes as described in example 1. Maldi TOF analyses were performed on plasma samples as described in example 3. Undiluted sample (upper spectrum, mass peak of 826.06 Da at the arrow) and 100-fold diluted sample (lower spectrum, mass peak of 826.47 Da at the arrow) both gave a peak of the right mass, i.e. corresponding to intact methyllanthionine-containing angiotensin(1-7) (Theoretical mass M+H^+ equals 825.9758). […] In a control experiment mixing natural angiotensin(1-7) ex vivo with rat plasma, allowed subsequent detection of natural angiotensin(1-7) (not shown). Experimental details are mentioned in the text of example 3.
A male Sprague Dawley rat was kept under O2/Isoflurane (1.5-2%) narcosis throughout the study. A jugular vein catheter was applied and connected to a syringe containing 0.9% physiological salt solution. The syringe was mounted onto an infusion pump and the flow rate set to 1 mL/hour. […]

Data set [4] is described as follows: proteolytic resistance in pig liver homogenate. The settings on record: pig, pig liver homogenate; for metabolised at 3 h, 0.2 μmol angiotensin/mg liver homogenate: read-out: Degradation after 3 h (%). It is filed as in vitro ADME. How it is done:
as §1

Data set [5] is described as follows: proteolytic resistance in pig pancreas homogenate. It is filed as in vitro ADME. The settings on record: for metabolised at 3 h, 0.8 μmol angiotensin/mg pancreas homogenate: read-out: Degradation after 3 h (%). How it is done: as §1
In data set [6] the target is T1, Angiotensin Converting Enzyme (ACE) from Porcine kidney (Sus scrofa, UniProt F1RRW5).
T1 construct: Angiotensin Converting Enzyme (ACE) from Porcine kidney, SIGMA; purchased SIGMA; host or cells: porcine kidney (tissue-derived)
T1 sequence (F1RRW5 34-1309): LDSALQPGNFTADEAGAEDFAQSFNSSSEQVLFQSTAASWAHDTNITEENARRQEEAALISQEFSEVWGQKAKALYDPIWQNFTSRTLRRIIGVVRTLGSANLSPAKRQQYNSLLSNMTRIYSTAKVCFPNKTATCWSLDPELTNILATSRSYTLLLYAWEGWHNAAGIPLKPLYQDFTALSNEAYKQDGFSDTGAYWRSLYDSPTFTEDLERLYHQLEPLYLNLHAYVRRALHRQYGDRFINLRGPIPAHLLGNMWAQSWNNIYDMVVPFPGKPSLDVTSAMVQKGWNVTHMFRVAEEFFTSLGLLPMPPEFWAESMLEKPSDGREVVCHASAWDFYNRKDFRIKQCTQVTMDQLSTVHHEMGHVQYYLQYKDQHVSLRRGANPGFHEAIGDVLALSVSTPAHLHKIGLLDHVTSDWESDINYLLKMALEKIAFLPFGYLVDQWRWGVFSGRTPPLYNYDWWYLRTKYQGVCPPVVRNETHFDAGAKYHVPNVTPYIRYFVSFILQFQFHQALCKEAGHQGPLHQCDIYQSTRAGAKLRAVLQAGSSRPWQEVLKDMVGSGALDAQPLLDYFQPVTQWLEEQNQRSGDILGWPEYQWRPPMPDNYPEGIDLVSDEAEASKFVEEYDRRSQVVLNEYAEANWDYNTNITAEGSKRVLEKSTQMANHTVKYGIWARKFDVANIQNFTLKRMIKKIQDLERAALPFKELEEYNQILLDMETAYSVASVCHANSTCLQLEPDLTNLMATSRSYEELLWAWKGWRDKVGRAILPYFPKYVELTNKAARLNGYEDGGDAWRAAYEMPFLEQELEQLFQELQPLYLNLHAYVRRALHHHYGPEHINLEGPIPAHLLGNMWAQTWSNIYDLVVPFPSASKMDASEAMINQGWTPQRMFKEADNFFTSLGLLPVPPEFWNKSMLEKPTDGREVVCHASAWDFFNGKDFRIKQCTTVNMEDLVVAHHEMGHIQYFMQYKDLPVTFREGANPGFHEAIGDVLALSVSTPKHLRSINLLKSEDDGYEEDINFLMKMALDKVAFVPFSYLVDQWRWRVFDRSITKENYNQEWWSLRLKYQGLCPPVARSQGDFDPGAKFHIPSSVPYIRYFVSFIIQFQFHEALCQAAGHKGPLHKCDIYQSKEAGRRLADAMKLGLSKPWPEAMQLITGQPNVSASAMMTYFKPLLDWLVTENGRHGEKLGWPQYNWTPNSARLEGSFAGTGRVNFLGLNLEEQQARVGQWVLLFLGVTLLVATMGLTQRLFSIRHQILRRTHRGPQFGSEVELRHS
Nature of the data set: resistance against angiotensin converting enzyme (ACE). The format is in vitro ADME. The settings on record: 50 μM peptide; for breakdown by ACE: 37° C., pH 8.3. The protocol: Angiotensin Converting Enzyme (ACE) from Porcine kidney, SIGMA, was used at 4 nM final concentration, FIGS. 2A and 2B, or at 8 nM final concentration, FIGS. 2C and 2D. Natural Ang(1-7) was purchased from Bachem. All experiments were performed in duplicate in a waterbath at 37° C., incubations were performed in a buffer containing 100 mM Tris-HCl, 300 mm NaCl, 10 μM Zn, pH 8.3. Thioether-ring-containing angiotensin was obtained by bacterial production using L. lactis containing the nisin modification and transporter enzymes, NisBTC. Natural angiotensin(1-7), lanthionine-containing angiotensin(1-7) and methyllanthionine-containing angiotensin(1-7) were each used at a concentration of 50 μM. Both the lanthionine and the methyllanthionine variant had the thioether bridge between positions 4 and 7. The reaction was stopped by 100° C. for 5 minutes and put on ice. Samples were centrifuged for 10 min at 14000 rpm at 4° C. and quantified by RP-HPLC. Identification of the HPLC peaks was performed using Maldi TOF mass spectrometry. All points are the average of two measurements.

For a further data set, the system named is angiotensinases. Description: in the body; angiotensinases located in red blood cells and the vascular beds of most tissues. The settings on record: cited from earlier work.
For the next data set, the system named is ACE. Nature of the data set: In vivo. The settings on record: cited from earlier work.
In data set [7] the test system is Angiotensin Converting Enzyme (ACE). Nature of the data set: Angiotensin Converting Enzyme (ACE) from Porcine kidney, SIGMA, 8 nM in 100 mM Tris-HCl, 300 mm NaCl, 10 μM Zn, pH 8.3. The settings on record: 37° C.
Data set [8] shares this test system. Description: Angiotensin Converting Enzyme (ACE) from Porcine kidney, SIGMA, 4 nM in 100 mM Tris-HCl, 300 mm NaCl, 10 μM Zn, pH 8.3. The settings on record: 37° C., up to 26 hour.
For data set [9] the following is noted: cited from earlier work.
Data set [10] concerns angiotensin-I converting enzyme (ACE). Nature of the data set: angiotensin-I converting enzyme (ACE) of the vascular endothelium. The settings on record: cited from earlier work.
Data set [11] can be described thus: plasma from rat under continuous intravenous infusion (1 mL/hour). The settings on record: Sprague Dawley rat, up to 120 min.
The mark [12] stands for this setting: pig, pig pancreas homogenate, pH 7.4, 37° C.

Data on 5 compounds can be found in patent US8835375B2 (Applied Nanosystems B.V., priority 2006, dated 2014).

“Also recorded” adds a separate entry of the source. Where two headings read alike, the source gives them in different places. Non-standard residues stand in square brackets, D forms with d. No end group written: not given here. Abu = CC[C@H](N)C(=O)O

Take `CC[C@H](C)[C@H](NC(=O)[C@H](Cc1ccc(O)cc1)NC(=O)[C@@H](NC(=O)[C@H](CCCNC(=N)N)NC(=O)[C@@H](N)CC(=O)O)C(C)C)C(=O)N[C@@H](Cc1c[nH]cn1)C(=O)N1CCC[C@H]1C(=O)O` [Ang(1-7), DRVYIHP, reference compound]: the half-life – broadly, the time needed for the level to fall by half in the phase considered – at 0.2 μmol/mg kidney homogenate was found to be 28 min in data set [1] (pH 5.0, 37° C.) and 5 min in [1] (pH 7.4, 37° C.). Moreover, the metabolised at 3 h, 0.2 μmol angiotensin/mg kidney homogenate in data set [1] (pH 5.0, 37° C.) turned out to be 98%; in data set [1] (pH 7.4, 37° C.), 100%. In addition, the half-life at 1 μmol/ml in [2] came to 166 min. Besides, in data set [2] (read-out: Degradation after 3 h (%)), the metabolised at 3 h, 1 μmol/ml was found to be 55%. For the same compound, the “detection of intact peptide in plasma by Maldi TOF” value in data set [3] is listed as “not detected at all”. For the same compound, the half-life at 0.2 μmol/mg liver homogenate in [4] (pH 5.0, 37° C.) was found to be 153 min; in data set [4] (pH 7.4, 37° C.), 32 min. For the same compound, the metabolised at 3 h, 0.2 μmol angiotensin/mg liver homogenate was 56% in [4] (pH 5.0, 37° C.) and 100% in data set [4] (pH 7.4, 37° C.). The “Half-life (min)” value in data set [5] (pH 5.0, 37° C.) is “∞”. Further, the metabolised at 3 h, 0.8 μmol angiotensin/mg pancreas homogenate is 16% in data set [5] (pig, pig pancreas homogenate, pH 5.0, 37° C.) and 81% in [5] (setting [12]). Also, in [5] (setting [12]), the half-life at 0.8 μmol/mg pancreas homogenate is 81 min. The “formation of Ang(1-5) by incubation with ACE” value is on record as “resulted in angiotensin(1-5) formation” in data set [6] (4 nM ACE) and “emergence of angiotensin(1-5)” in data set [6] (8 nM ACE). In addition, the “breakdown by ACE” value in data set [6] (4 nM ACE, 26 hour incubation) was “completely broken down”; in [6] (8 nM ACE) it was “rapidly broken down”.
In the case of Asp-Arg-Val-Tyr-Ile-His-Pro-Phe, the fragment found entry in the data set with angiotensinases is given as “angiotensin III (Arg-Val-Tyr-Ile-His-Pro-Phe; or Ang(2-8)”.
As for DRVYIHP, the cleaved bond result in the data set on ACE is recorded as “I5-H6”; in data set [7], “I5-H6, major”; in [8] it was “I5-H6, major”.
Regarding DRVYIHPFHL, in [9], the fragment found result is reported as “Ang(1-9); also recorded: Ang(1-7); also recorded: Ang III (Ang(2-8)); also recorded: Ang IV (Ang(3-8))”. In addition, the cleaved bond entry in data set [10] is given as “Phe8-His9”.
With DRV[Abu]IHA, the figures for the not cleaved result in data set [11], in [7] and in [8] were “intact peptide detected in the sample taken at 120 min; very stable”, “no breakdown observed” and “no degradation after 26 hour”, respectively.
